In general, IC50 refers to the midpoint of a concentration-inhibition curve.

The test system of the assay is Aβ 40 in conditioned media of cells stably expressing Amyloid Precursor Protein (APP). The assay can be described thus: BACE Cell-Based Assay (Aβ40 in conditioned medium, sandwich ELISA). As to conditions: 24 hours of incubation with the test compounds, Aβ 40 by sandwich ELISA, read-out: IC50 values in the cell-based assay (inhibition of Aβ 40). The protocol: The cell-based assay measures inhibition or reduction of Aβ40 in conditioned medium of test compound treated cells, which express amyloid precursor protein.
Cells stably expressing Amyloid Precursor Protein (APP) were plated at a density of 40K cells/well in 96 well plates (Costar). The cells were cultivated for 24 h at 37° C. and 5% CO2 in DMEM supplemented with 10% FBS. The test compounds were then added to cells in 10-point dose response concentrations with the starting concentration being either 100 μM or 10 μM. The compounds were diluted from stock solutions in DMSO and the final DMSO concentration of the test compounds on cells was 0.1%. After 24 hours of incubation with the test compounds the supernatant conditioned media was collected and the Aβ 40 levels were determined using a sandwich ELISA. The IC50 of the compound was calculated from the percent of control or percent inhibition of Aβ 40 as a function of the concentration of the test compound.
The sandwich ELISA to detect Aβ 40 was performed in 96 well microtiter plates, which were pre-treated with goat anti-rabbit IgG (Pierce). The capture and detecting antibody pair that were used to detect Aβ 40 from cell supernatants were affinity purified pAb40 (Biosource) and biotinylated 6E10 (Signet Labs Inc.), respectively. The optimal concentration for the pAb40 antibody was 3 μg/ml in Superblock/TBS (Pierce) that was supplemented with 0.05% Tween 20 (Sigma). Optimal concentration for the detection antibody 6E10-biotinylated was […] in Superblock/TBS (Pierce) that had been supplemented with 2% normal goat serum and 2% normal mouse serum.
Cellular supernatants were incubated with the capture antibody for 3 h at 4° C., followed by 3 wash steps in TBS-tween (0.05%). The detecting antibody incubation was for 2 h at 4° C., again followed by the wash steps as described previously. The final readout of the ELISA is Time-Resolved Fluorescence (counts per minute) using Delfia reagents Streptavidin-Europium and Enhancement solutions (Perkin Elmer) and the Victor 2 multilabel counter (Perkin Elmer).
In the case of `CCc1ccc2c(c1)[C@@H](NC[C@@H](O)[C@H](Cc1ccccc1)NC(=O)[C@@H]1CN(C(C)=O)c3ccccc3O1)CC1(CCCC1)O2` [Example 51, (S)-4-acetyl-N-((2S,3R)-4-((S)-6-ethyl-2,2-spirocyclopentylchroman-4-ylamino)-3-hydroxy-1-phenylbutan-2-yl)-3,4-dihydro-2H-benzo[b][1,4]oxazine-2-carboxamide], the IC50 was not above 5 µM.
The value for `CCc1ccc2c(c1)[C@@H](NC[C@@H](O)[C@H](Cc1ccccc1)NC(=O)[C@H]1CN(C(=O)OC(C)(C)C)c3ccccc3O1)CC1(CCCC1)O2` [Example 52, (R)-tert-Butyl 2-(((2S,3R)-4-((S)-6-ethyl-2,2-spirocyclopentylchroman-4-ylamino)-3-hydroxy-1-phenylbutan-2-yl)carbamoyl)-2,3-dihydrobenzo[b][1,4]oxazine-4-carboxylate] was not above 5 µM; that for `CCc1ccc2c(c1)[C@@H](NC[C@@H](O)[C@H](Cc1ccccc1)NC(=O)c1cc(N3CCCC3=O)c(=O)n(C3CCCC3)c1)CC1(CCCC1)O2` [Example 105] was not above 5 µM; that for `CCc1ccc2c(c1)[C@@H](NC[C@@H](O)[C@H](Cc1ccccc1)NC(=O)c1cc(-c3ccccc3F)c(=O)n3c1CCC3)CC1(CCCC1)O2` [Example 107, N-((2S,3R)-4-((8)-6-Ethyl-2,2-spirocyclopentylchroman-4-ylamino)3-hydroxy-1-phenylbutan-2-yl)-6-(2-fluorophenyl)-5-oxo-1,2,3,5-tetrahydroindolizine-8-carboxamide] was not above 5 µM.
Next, `CCc1ccc2c(c1)[C@@H](NC[C@@H](O)[C@H](Cc1ccccc1)NC(=O)c1cc(-c3cccc(F)c3)c(=O)n3c1CCC3)CC1(CCCC1)O2` [Example 108, N-((2S,3R)-4-((8)-6-Ethyl-2,2-spirocyclopentylchroman-4-ylamino)3-hydroxy-1-phenylbutan-2-yl)-6-(3-fluorophenyl)-5-oxo-1,2,3,5-tetrahydroindolizine-8-carboxamide]: not above 5 µM.
The value for `O=C(N[C@@H](Cc1ccccc1)[C@H](O)CN[C@H]1CC2(CCCC2)Oc2ccc(F)cc21)c1cc(N2CCCC2=O)c(=O)n(C2CCCC2)c1` [Example 110] was not above 5 µM; that for `O=C(N[C@@H](Cc1ccccc1)[C@H](O)CN[C@H]1CC2(CCCC2)Oc2c(F)cc(F)cc21)c1cc(N2CCCC2=O)c(=O)n(C2CCCC2)c1` [Example 111] was not above 5 µM.
With `CCc1ccc2c(c1)[C@@H](NC[C@@H](O)[C@H](Cc1ccccc1)NC(=O)c1cc(N3CCCC3=O)c(=O)n(C3CCCC3)c1)CC1(CCC1)O2` [Example 116], the IC50 was not above 5 µM.
As to `CCc1ccc2c(c1)[C@@H](NC[C@@H](O)[C@H](Cc1ccccc1)NC(=O)c1ccc(=O)n(C3CCCC3)c1)CC1(CCC1)O2` [Example 117], the concentration for half-maximal inhibition (IC50) is not above 5 µM.
Next, `CCc1ccc2c(c1)[C@@H](NC[C@@H](O)[C@H](Cc1ccccc1)NC(=O)c1ccc(=O)n(CC(C)C)c1)CC1(CCC1)O2` [Example 118]: not above 5 µM; `CCc1ccc2c(c1)[C@@H](NC[C@@H](O)[C@H](Cc1ccccc1)NC(=O)c1ccc(=O)n(CC(F)(F)F)c1)CC1(CCC1)O2` [Example 119]: not above 5 µM; `CCc1ccc2c(c1)[C@@H](NC[C@@H](O)[C@H](Cc1ccccc1)NC(=O)c1ccc(=O)n(-c3ccccc3)c1)CC1(CCC1)O2` [Example 120]: not above 5 µM.
`O=C(N[C@@H](Cc1ccccc1)[C@H](O)CN[C@H]1CC2(CCCC2)Oc2ccc(Br)cc21)c1cc(N2CCCC2=O)c(=O)n(C2CCCC2)c1` [Example 121]: the half-maximal inhibitory concentration (IC50) was not above 5 µM.
The value for `O=C(N[C@@H](Cc1ccccc1)[C@H](O)CN[C@H]1CC2(CCCC2)Oc2ccc(Br)cc21)c1ccc(=O)n(C2CCCC2)c1` [Example 122] was not above 5 µM.
Next, `CC(C)Cn1cc(C(=O)N[C@@H](Cc2ccccc2)[C@H](O)CN[C@H]2CC3(CCCC3)Oc3ccc(Br)cc32)ccc1=O` [Example 123]: not above 5 µM.
The value for `CC(C)(C)Cc1ccc2c(c1)[C@@H](NC[C@@H](O)[C@H](Cc1ccccc1)NC(=O)c1cc(N3CCCC3=O)c(=O)n(C3CCCC3)c1)CC1(CCCC1)O2` [Example 124] was not above 5 µM; that for `CC(C)(C)Cc1ccc2c(c1)[C@@H](NC[C@@H](O)[C@H](Cc1ccccc1)NC(=O)c1ccc(=O)n(C3CCCC3)c1)CC1(CCCC1)O2` [Example 125] was not above 5 µM.
With `CCc1ccc2c(c1)[C@@H](NC[C@@H](O)[C@H](Cc1ccccc1)NC(=O)c1cc(-c3ccccc3F)c(=O)n3c1CCC3)CC1(CCC1)O2` [Example 126, N-((2S,3R)-4-((S)-6-Ethyl-2,2-spirocyclobutylchroman-4-ylamino)3-hydroxy-1-phenylbutan-2-yl)-6-(2-fluorophenyl)-5-oxo-1,2,3,5-tetrahydroindolizine-8-carboxamide], the 50% inhibitory concentration (IC50) is not above 5 µM.
In the case of `CCc1ccc2c(c1)[C@@H](NC[C@@H](O)[C@H](Cc1ccccc1)NC(=O)c1cc(N3CCCC3=O)c(=O)n(C3CCCC3)c1)CC1(CCCCC1)O2` [Example 128, 1-cyclopentyl-N-((2S,3R)-4-((8)-6-ethyl-2,2-spirocyclohexyl-chroman-4-ylamino)-3-hydroxy-1-phenylbutan-2-yl)-6-oxo-5-(2-oxopyrrolidin-1-yl)-1,6-dihydropyridine-3-carboxamide], the 50% inhibitory concentration (IC50) is not above 5 µM.
The value for `CCc1ccc2c(c1)[C@@H](NC[C@@H](O)[C@H](Cc1ccccc1)NC(=O)c1ccc(=O)n(C3CCCCC3)c1)CC1(CCCCC1)O2` [Example 129, 1-cyclohexyl-N-((2S,3R)-4-((S)-6-ethyl-2,2-spirocyclohexyl-chroman-4-ylamino)-3-hydroxy-1-phenylbutan-2-yl)-6-oxo-1,6-dihydropyridine-3-carboxamide] was not above 5 µM; that for `CCc1ccc2c(c1)[C@@H](NC[C@@H](O)[C@H](Cc1ccccc1)NC(=O)c1cc(N3CCCC3=O)c(=O)n(C3CCCC3)c1)CC1(CCCCCC1)O2` [Example 130, 1-cyclopentyl-N-((2S,3R)-4-((S)-6-ethyl-2,2-spirocycloheptyl-chroman-4-ylamino)-3-hydroxy-1-phenylbutan-2-yl)-6-oxo-5-(2-oxopyrrolidin-1-yl)-1,6-dihydropyridine-3-carboxamide] was not above 5 µM.
Next, `Cc1ccc2c(c1)[C@@H](NC[C@@H](O)[C@H](Cc1ccccc1)NC(=O)c1cc(N3CCCC3=O)c(=O)n(C3CCCC3)c1)CC1(CCCC1)O2` [Example 131, 1-cyclopentyl-N-((2S,3R)-4-((S)-2,2-spirocyclopentyl-6-methylchroman-4-ylamino)-3-hydroxy-1-phenylbutan-2-yl)-6-oxo-5-(2-oxopyrrolidin-1-yl)-1,6-dihydropyridine-3-carboxamide]: not above 5 µM; `Cc1ccc2c(c1)[C@@H](NC[C@@H](O)[C@H](Cc1ccccc1)NC(=O)c1ccc(=O)n(C3CCCC3)c1)CC1(CCCC1)O2` [Example 132, 1-cyclopentyl-N-((2S,3R)-4-((S)-2,2-spirocyclopentyl-6-methylchroman-4-ylamino)-3-hydroxy-1-phenylbutan-2-yl)-6-oxo-1,6-dihydropyridine-3-carboxamide]: not above 5 µM; `Cc1ccc2c(c1)[C@@H](NC[C@@H](O)[C@H](Cc1ccccc1)NC(=O)c1ccc(=O)n(CC(C)(C)C)c1)CC1(CCCC1)O2` [Example 133, N-((2S,3R)-4-((S)-2,2-spirocyclopentyl-6-methylchroman-4-ylamino)-3-hydroxy-1-phenylbutan-2-yl)-1-neopentyl-6-oxo-1,6-dihydropyridine-3-carboxamide]: not above 5 µM.
The value for `O=C(N[C@@H](Cc1ccccc1)[C@H](O)CN[C@H]1CC2(CCCC2)Oc2ccc(OC(F)(F)F)cc21)c1cc(N2CCCC2=O)c(=O)n(C2CCCC2)c1` [Example 134, 1-cyclopentyl-N-((2S,3R)-4-((S)-2,2-spirocyclopentyl-6-(trifluoromethoxy)chroman-4-ylamino)-3-hydroxy-1-phenylbutan-2-yl)-6-oxo-5-(2-oxopyrrolidin-1-yl)-1,6-dihydropyridine-3-carboxamide] was not above 5 µM.
`O=C(N[C@@H](Cc1ccccc1)[C@H](O)CN[C@H]1CC2(CCCC2)Oc2ccc(OC(F)(F)F)cc21)c1ccc(=O)n(C2CCCC2)c1` [Example 135, 1-cyclopentyl-N-((2S,3R)-4-((S)-2,2-spirocyclopentyl-6-(tri-fluoromethoxy)chroman-4-ylamino)-3-hydroxy-1-phenylbutan-2-yl)-6-oxo-1,6-dihydropyridine-3-carb oxamide]: the IC50 was not above 5 µM.
The value for `CC(C)(C)Cn1cc(C(=O)N[C@@H](Cc2ccccc2)[C@H](O)CN[C@H]2CC3(CCCC3)Oc3ccc(OC(F)(F)F)cc32)ccc1=O` [Example 136, N-((2S,3R)-4-((S)-2,2-spirocyclopentyl-6-(trifluoro-methoxy)chroman-4-ylamino)-3-hydroxy-1-phenylbutan-2-yl)-1-neopentyl-6-oxo-1,6-dihydropyridine-3-carboxamide] was not above 5 µM.

For the origin of these results see patent US8163766B2, “Beta-secretase modulators and methods of use” (Amgen Inc., priority 2005, dated 2012).
